Earlier results as cited in patent EP2042172A1, “Use of tocopherol derivatives as inhibitors of the notch signalling pathway” (Inserm, priority 2007, dated 2009).

System: axonal growth
Conditions: even in the presence of inhibitory signals (Hanbali et al., 2004); cited from earlier work

Question: Which “axonal growth in vitro” value does the source give for CC1=C(CCCCCCCCCCCCCCCO)C(C)(C)CCC1=O [tCFA15] here?
Answer: promote axonal growth in vitro
